Reference: patent publication US10787462B2, “Heterocyclic compound” (TAKEDA PHARMACEUTICAL COMPANY LIMITED, priority 2015, dated 2020)

What follows are molecules tested against T1, human RIPK1 (1-375) (Homo sapiens, UniProt Q13546) (assay: Human RIPK1 enzyme inhibitory effect (ADP-Glo Kinase Assay)). Conditions: 10 μM test compound; well without enzyme = 100% inhibition; 10 µM.
T1 construct: human RIPK1 (1-375) gene; GST; made in house; host or cells: Sf-9 insect cells
T1 sequence (Q13546 1-375): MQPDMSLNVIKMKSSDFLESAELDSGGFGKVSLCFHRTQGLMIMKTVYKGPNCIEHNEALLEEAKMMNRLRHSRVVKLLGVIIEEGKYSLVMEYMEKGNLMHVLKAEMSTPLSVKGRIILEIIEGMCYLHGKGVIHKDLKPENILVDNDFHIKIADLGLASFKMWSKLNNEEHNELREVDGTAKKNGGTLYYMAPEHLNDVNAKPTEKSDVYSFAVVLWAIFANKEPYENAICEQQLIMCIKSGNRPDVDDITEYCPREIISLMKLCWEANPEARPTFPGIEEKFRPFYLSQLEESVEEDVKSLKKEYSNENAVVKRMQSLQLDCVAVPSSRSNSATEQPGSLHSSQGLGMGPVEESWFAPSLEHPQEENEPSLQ
Assay type: biochemical
Method in brief: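 ADP-Glo luminescence read-out of ADP formed over 120 min at room temperature after adding 0.6 mM ATP solution (stock concentration). Compound and Sf-9-expressed, GST-purified RIPK1 (1-375) were first incubated together for 20 min in HEPES pH 7.5 buffer with MgCl2, Tween-20 and DTT.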

Row | human RIPK1 enzyme inhibitory effect at 10 μM (% inhibition) [%] | SMILES
1 | 100 | CN1C(=O)C(N2CCc3c(nn(Cc4ccccc4)c3Cl)C2=O)CCc2cccnc21 (stereo not drawn) [Example 91, 7-(2-benzyl-3-chloro-7-oxo-2,4,5,7-tetrahydro-6H-pyrazolo[3,4-c]pyridin-6-yl)-9-methyl-5,6,7,9-tetrahydro-8H-pyrido[2,3-b]azepin-8-one]
2 | 69 | CN1C(=O)C(N2CCc3c(nn(Cc4ccccc4)c3Cl)C2=O)CCc2cccnc21 (stereo not drawn) [Example 93, 7-(2-benzyl-3-chloro-7-oxo-2,4,5,7-tetrahydro-6H-pyrazolo[3,4-c]pyridin-6-yl)-9-methyl-5,6,7,9-tetrahydro-8H-pyrido[2,3-b]azepin-8-one]
3 | 101 | CN1C(=O)C(N2CCc3c(nn(Cc4ccccc4)c3Cl)C2=O)CCc2cccnc21 (stereo not drawn) [Example 94, 7-(2-benzyl-3-chloro-7-oxo-2,4,5,7-tetrahydro-6H-pyrazolo[3,4-c]pyridin-6-yl)-9-methyl-5,6,7,9-tetrahydro-8H-pyrido[2,3-b]azepin-8-one]
4 | 101 | CN1C(=O)C(N2CCc3c(nn(Cc4ccccc4)c3Cl)C2=O)CCc2ccncc21 (stereo not drawn) [Example 95, 3-(2-benzyl-3-chloro-7-oxo-2,4,5,7-tetrahydro-6H-pyrazolo[3,4-c]pyridin-6-yl)-1-methyl-1,3,4,5-tetrahydro-2H-pyrido[3,4-b]azepin-2-one]
5 | 96 | CN1C(=O)C(N2CCc3c(nn(Cc4ccccc4F)c3Cl)C2=O)CCc2cnccc21 (stereo not drawn) [Example 96, 3-(3-chloro-2-(2-fluorobenzyl)-7-oxo-2,4,5,7-tetrahydro-6H-pyrazolo[3,4-c]pyridin-6-yl)-1-methyl-1,3,4,5-tetrahydro-2H-pyrido[4,3-b]azepin-2-one]
6 | 98 | CN1C(=O)C(N2CCc3c(nn(Cc4ccccc4F)c3Cl)C2=O)CCc2ccncc21 (stereo not drawn) [Example 97, 3-(3-chloro-2-(2-fluorobenzyl)-7-oxo-2,4,5,7-tetrahydro-6H-pyrazolo[3,4-c]pyridin-6-yl)-1-methyl-1,3,4,5-tetrahydro-2H-pyrido[3,4-b]azepin-2-one]

Same assay, conditions: read-out: human RIPK1 enzyme inhibitory effect at 10 μM (% inhibition), 10 μM test compound; well without enzyme = 100% inhibition

Row | inhibition at 10 µM [%] | SMILES
7 | 92 | CN1C(=O)[C@@H](N2CCc3nn(Cc4ccccc4)cc3C2=O)COc2ccccc21 [Example 70, (3S)-3-(2-benzyl-4-oxo-2,4,6,7-tetrahydro-5H-pyrazolo[4,3-c]pyridin-5-yl)-5-methyl-2,3-dihydro-1,5-benzoxazepin-4(5H)-one]
8 | 99 | CN1C(=O)[C@@H](N2CCc3cn(Cc4ccccc4)nc3C2=O)COc2ccc(C(N)=O)cc21 [Example 72, (3S)-3-(2-benzyl-7-oxo-2,4,5,7-tetrahydro-6H-pyrazolo[3,4-c]pyridin-6-yl)-5-methyl-4-oxo-2,3,4,5-tetrahydro-1,5-benzoxazepine-7-carboxamide]
9 | 91 | Cc1nccnc1Cn1nc2c(c1Cl)CCN([C@H]1COc3ccccc3N(C)C1=O)C2=O [Example 73, (3S)-3-(3-chloro-2-((3-methylpyrazin-2-yl)methyl)-7-oxo-2,4,5,7-tetrahydro-6H-pyrazolo[3,4-c]pyridin-6-yl)-5-methyl-2,3-dihydro-1,5-benzoxazepin-4(5H)-one]
10 | 101 | CN1C(=O)[C@@H](N2CCc3c(nn(Cc4cnccn4)c3Cl)C2=O)COc2cc(F)ccc21 [Example 75, (3S)-3-(3-chloro-7-oxo-2-(pyrazin-2-ylmethyl)-2,4,5,7-tetrahydro-6H-pyrazolo[3,4-c]pyridin-6-yl)-8-fluoro-5-methyl-2,3-dihydro-1,5-benzoxazepin-4(5H)-one]
11 | 97 | CN1C(=O)[C@@H](N2CCc3c(nn(Cc4ccccc4)c3Cl)C2=O)COc2ccccc21 [Example 76, (3S)-3-(2-benzyl-3-chloro-7-oxo-2,4,5,7-tetrahydro-6H-pyrazolo[3,4-c]pyridin-6-yl)-5-methyl-2,3-dihydro-1,5-benzoxazepin-4(5H)-one]
12 | 101 | CN1C(=O)[C@@H](N2CCc3cn(Cc4ccccc4F)nc3C2=O)COc2ccc(C#N)cc21 [Example 77, (3S)-3-(2-(2-fluorobenzyl)-7-oxo-2,4,5,7-tetrahydro-6H-pyrazolo[3,4-c]pyridin-6-yl)-5-methyl-4-oxo-2,3,4,5-tetrahydro-1,5-benzoxazepine-7-carbonitrile]
13 | 99 | CN1C(=O)[C@@H](N2Cc3c(nn(Cc4ccccc4)c3Cl)C2=O)COc2ccccc21 [Example 78, (3S)-3-(2-benzyl-3-chloro-6-oxo-2,6-dihydropyrrolo[3,4-c]pyrazol-5(4H)-yl)-5-methyl-2.3-dihydro-1,5-benzoxazepin-4(5H)-one]
14 | 100 | Cc1c2c(nn1Cc1cnccn1)C(=O)N([C@H]1COc3ccccc3N(C)C1=O)CC2 [Example 79, (3S)-5-methyl-3-(3-methyl-7-oxo-2-(pyrazin-2-ylmethyl)-2,4,5,7-tetrahydro-6H-pyrazolo[3,4-c]pyridin-6-yl)-2,3-dihydro-1,5-benzoxazepin-4(5H)-one]
15 | 101 | CN1C(=O)[C@@H](N2CCc3c(nn(Cc4cnccn4)c3Cl)C2=O)COc2ccccc21 [Example 80, (3S)-3-(3-chloro-7-oxo-2-(pyrazin-2-ylmethyl)-2,4,5,7-tetrahydro-6H-pyrazolo[3,4-c]pyridin-6-yl)-5-methyl-2,3-dihydro-1,5-benzoxazepin-4(5H)-one]
16 | 101 | CN1C(=O)[C@@H](N2CCc3c(nn(Cc4ccccc4)c3Cl)C2=O)COc2ccc(C(N)=O)cc21 [Example 81, (3S)-3-(2-benzyl-3-chloro-7-oxo-2,4,5,7-tetrahydro-6H-pyrazolo[3,4-c]pyridin-6-yl)-5-methyl-4-oxo-2,3,4,5-tetrahydro-1,5-benzoxazepine-7-carboxamide]
17 | 99 | O=C1Nc2ccc(Br)cc2OC[C@@H]1N1CCc2c(nn(Cc3ccccc3)c2Cl)C1=O [Example 82, (3S)-3-(2-benzyl-3-chloro-7-oxo-2,4,5,7-tetrahydro-6H-pyrazolo[3,4-c]pyridin-6-yl)-8-bromo-2,3-dihydro-1,5-benzoxazepin-4(5H)-one]
18 | 92 | N#Cc1ccc2c(c1)OC[C@H](N1CCc3c(nn(Cc4ccccc4)c3Cl)C1=O)C(=O)N2 [Example 83, (3S)-3-(2-benzyl-3-chloro-7-oxo-2,4,5,7-tetrahydro-6H-pyrazolo[3,4-c]pyridin-6-yl)-4-oxo-2,3,4,5-tetrahydro-1,5-benzoxazepine-8-carbonitrile]
19 | 101 | Cc1c2c(nn1Cc1ccccc1)C(=O)N([C@H]1COc3cc(Br)ccc3N(C)C1=O)CC2 [Example 84]
20 | 101 | Cc1c2c(nn1Cc1ccccc1)C(=O)N([C@H]1COc3ccc(C#N)cc3N(C)C1=O)CC2 [Example 85, (3S)-3-(2-benzyl-3-methyl-7-oxo-2,4,5,7-tetrahydro-6H-pyrazolo[3,4-c]pyridin-6-yl)-5-methyl-4-oxo-2,3,4,5-tetrahydro-1,5-benzoxazepine-7-carbonitrile]
21 | 100 | Cc1c2c(nn1Cc1ccccc1)C(=O)N([C@H]1COc3cc(C#N)ccc3N(C)C1=O)CC2 [Example 86]
22 | 100 | CN(C)C(=O)c1ccc2c(c1)OC[C@H](N1CCc3c(nn(Cc4ccccc4)c3Cl)C1=O)C(=O)N2C [Example 87, (3S)-3-(2-benzyl-3-chloro-7-oxo-2,4,5,7-tetrahydro-6H-pyrazolo[3,4-c]pyridin-6-yl)-N,N,5-trimethyl-4-oxo-2,3,4,5-tetrahydro-1,5-benzoxazepine-8-carboxamide]
23 | 101 | Cc1c2c(nn1Cc1ccccc1)C(=O)N([C@H]1COc3cc(C(N)=O)ccc3N(C)C1=O)CC2 [Example 88, (3S)-3-(2-benzyl-3-methyl-7-oxo-2,4,5,7-tetrahydro-6H-pyrazolo[3,4-c]pyridin-6-yl)-5-methyl-4-oxo-2,3,4,5-tetrahydro-1,5-benzoxazepine-8-carboxamide]
24 | 101 | CNC(=O)c1ccc2c(c1)N(C)C(=O)[C@@H](N1CCc3c(nn(Cc4ccccc4)c3Cl)C1=O)CO2 [Example 89, (3S)-3-(2-benzyl-3-chloro-7-oxo-2,4,5,7-tetrahydro-6H-pyrazolo[3,4-c]pyridin-6-yl)-N,5-dimethyl-4-oxo-2,3,4,5-tetrahydro-1,5-benzoxazepine-7-carboxamide]
25 | 101 | CN(C)C(=O)c1ccc2c(c1)N(C)C(=O)[C@@H](N1CCc3c(nn(Cc4ccccc4)c3Cl)C1=O)CO2 [Example 90, (3S)-3-(2-benzyl-3-chloro-7-oxo-2,4,5,7-tetrahydro-6H-pyrazolo[3,4-c]pyridin-6-yl)-N,N,5-trimethyl-4-oxo-2,3,4,5-tetrahydro-1,5-benzoxazepine-7-carboxamide]
26 | 98 | CN1C(=O)C(N2CCc3c(nn(Cc4ccccc4)c3Cl)C2=O)CCc2nn(C)cc21 (stereo not drawn) [Example 92, 6-(2-benzyl-3-chloro-7-oxo-2,4,5,7-tetrahydro-6H-pyrazolo[3,4-c]pyridin-6-yl)-2,4-dimethyl-2,6,7,8-tetrahydropyrazolo[4,3-b]azepin-5(4H)-one]
27 | 98 | CN1C(=O)C(N2CCc3c(nn(Cc4ccccc4)c3Cl)C2=O)CCc2cnccc21 (stereo not drawn) [Example 98, 3-(2-benzyl-3-chloro-7-oxo-2,4,5,7-tetrahydro-6H-pyrazolo[3,4-c]pyridin-6-yl)-1-methyl-1,3,4,5-tetrahydro-2H-pyrido[4,3-b]azepin-2-one]
